The values that follow come from patent publication US11795177B2, “Substituted quinoline analogs as aldehyde dehydrogenase 1A1 (ALDH1A1) inhibitors” (THE UNITED STATES OF AMERICA, AS REPRESENTED BY THE …, priority 2017, dated 2023).

Where a name gives a salt, the structure may show the parent alone.

Test [1] deals with T1, ALDH1A1 enzyme (Homo sapiens, UniProt P00352).
T1 sequence (P00352 1-501): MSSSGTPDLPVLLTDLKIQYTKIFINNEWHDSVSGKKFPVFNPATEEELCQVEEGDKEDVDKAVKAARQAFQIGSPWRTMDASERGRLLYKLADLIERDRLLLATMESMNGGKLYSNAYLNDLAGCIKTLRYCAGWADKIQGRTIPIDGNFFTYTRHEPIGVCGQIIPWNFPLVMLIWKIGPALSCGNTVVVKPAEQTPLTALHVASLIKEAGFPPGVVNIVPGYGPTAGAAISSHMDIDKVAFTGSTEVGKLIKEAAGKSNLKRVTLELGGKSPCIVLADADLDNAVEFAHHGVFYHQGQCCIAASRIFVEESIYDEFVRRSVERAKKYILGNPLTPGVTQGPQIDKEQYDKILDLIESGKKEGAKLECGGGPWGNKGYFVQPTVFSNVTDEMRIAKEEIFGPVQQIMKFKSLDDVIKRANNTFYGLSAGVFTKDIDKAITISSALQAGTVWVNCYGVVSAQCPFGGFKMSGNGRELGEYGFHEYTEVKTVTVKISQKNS
The test can be described thus: ALDH1A1 enzymatic assay (in vitro). As to conditions: ALDH1A1 enzyme 20 nM, NAD+ 1 mM, propionaldehyde 80 μM; read-out: ALDH1A1 IC50. The test is classed as biochemical. An outline of the steps:
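ALDH1A1 (20 nM final) in 100 mM HEPES pH 7.5, 0.01% Tween 20 was preincubated 15 min at RT with compound (968 pM–57.2 μM final), then started with 1 mM NAD+ and 80 μM propionaldehyde. NADH fluorescence (ex 340/em 450 nm) followed kinetically for 10 min; change normalized to no-inhibitor and no-enzyme controls for percent inhibition and curve fitting.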

In test [2] the test system is MIA PaCa-2 cells. The test can be described thus: MIA PaCa2 cell-based assay (1,536-well high-content imaging ALDEFLUOR assay). On the set-up: species or system human. The settings on record: Homo sapiens, 0.5 h, ALDEFLUOR BAAA substrate 500 nM, 30 minutes. An outline of the steps: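 MIA PaCa-2 cells (1,000/well), plated overnight, given BAAA substrate (500 nM) plus Hoechst 33342 (0.5 nM), then compound (16-point, 1.4 nM–47.8 μM final; 0.5% DMSO). After 30 min at 37° C, ALDH activity imaged by high-content microscopy as BAA-retaining (FITC) cells versus Hoechst-stained nuclei.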

In general, IC50 refers to the midpoint of a concentration-inhibition curve. Turning to `COc1c(F)cc2c(N3CCC4(CC3)OCCO4)c(C(=O)N3CCN(C(=O)C4CC4)CC3)cnc2c1F` [Example 123, (4-(cyclopropanecarbonyl)piperazin-1-yl)(6,8-difluoro-7-methoxy-4-(1,4-dioxa-8-azaspiro[4.5]decan-8-yl)quinolin-3-yl)methanone], the IC50 in test [1] is < 500 nM; in test [2], 1000 to 10000 nM.

Consider `CN(C)S(=O)(=O)N1CCN(C(=O)c2cnc3ccsc3c2-c2ccc(C3(C#N)CC3)cc2)CC1` [Example 284, 4-(7-(4-(1-cyanocyclopropyl)phenyl)thieno[3,2-b]pyridine-6-carbonyl)-N,N-dimethylpiperazine-1-sulfonamide], for which the IC50 in test [1] and in test [2] was < 500 nM each time.

On to `CS(=O)(=O)N1CCN(C(=O)c2cnc3ccc(F)cc3c2N2CCC(CC#N)CC2)CC1` [Example 214, 2-(1-(6-fluoro-3-(4-(methylsulfonyl)piperazine-1-carbonyl)quinolin-4-yl)piperidin-4-yl)acetonitrile], for which the IC50 was 1000 to 10000 nM in test [1] and > 10000 nM in test [2].

Regarding `O=C(c1cnc2ccc(F)cc2c1N1CCC(CO)(c2ccccc2)CC1)N1CCN(C(=O)C2CC2)CC1` [Example 255, (4-(cyclopropanecarbonyl)piperazin-1-yl)(6-fluoro-4-(4-(hydroxymethyl)-4-phenylpiperidin-1-yl)quinolin-3-yl)methanone], the IC50 in test [1] was 1000 to 10000 nM; in test [2], > 10000 nM.

As to `CN(C)S(=O)(=O)N1CCN(C(=O)c2cnc3c(F)cc(F)cc3c2N2CCC(C)(C#N)CC2)CC1` [Example 167, 4-(4-(4-cyano-4-methylpiperidin-1-yl)-6,8-difluoroquinoline-3-carbonyl)-N,N-dimethylpiperazine-1-sulfonamide], the IC50 in test [1] and in test [2] was < 500 nM throughout.

In the case of `O=C(c1cnc2ccc(F)cc2c1N1CCC2(CC1)OCCO2)N1CCOCC1` [Example 58, (6-fluoro-4-(1,4-dioxa-8-azaspiro[4.5]decan-8-yl)quinolin-3-yl)(morpholino)methanone], the concentration for half-maximal inhibition (IC50) in test [1] is 500 to 1000 nM; in test [2], > 10000 nM.

Take `O=C(c1cnc2ccc(F)cc2c1N1CCC2(CC1)C(=O)Cc1ccccc12)N1CCN(C(=O)C2CC2)CC1` [Example 246, 1′-(3-(4-(cyclopropanecarbonyl)piperazine-1-carbonyl)-6-fluoroquinolin-4-yl)spiro[indene-1,4′-piperidin]-2(3H)-one]: the IC50 in test [1] is < 500 nM; in test [2], 1000 to 10000 nM.

With `CCS(=O)(=O)N1CCN(C(=O)c2cnc3sccc3c2N2CCC(C)(C#N)CC2)CC1` [Example 218, 1-(5-(4-(ethylsulfonyl)piperazine-1-carbonyl)thieno[2,3-b]pyridin-4-yl)-4-methylpiperidine-4-carbonitrile], the IC50 in test [1] was < 500 nM; in test [2] it was 1000 to 10000 nM.

Consider `CC1(C#N)CCN(c2c(C(=O)N3CCN(S(C)(=O)=O)CC3)cnc3ccc(Cl)cc23)CC1` [Example 119, 1-(6-chloro-3-(4-(methylsulfonyl)piperazine-1-carbonyl)quinolin-4-yl)-4-methylpiperidine-4-carbonitrile], for which the results for the IC50 in test [1] and in test [2] were < 500 nM and 1000 to 10000 nM, respectively.

Take `CCC(=O)N1CCN(C(=O)c2cnc3ccccc3c2N2CCC(C)(C#N)CC2)CC1` [Example 94, 4-methyl-1-(3-(4-propionylpiperazine-1-carbonyl)quinolin-4-yl)piperidine-4-carbonitrile]: the values for the IC50 in test [1] and in test [2] were 500 to 1000 nM and > 10000 nM, respectively.

As to `COc1ccc2ncc(C(=O)N3CCN(C(=O)C4CC4)CC3)c(N3CCN(S(C)(=O)=O)CC3)c2c1` [Example 19, (4-(cyclopropanecarbonyl)piperazin-1-yl)(6-methoxy-4-(4-(methylsulfonyl)piperazin-1-yl)quinolin-3-yl)methanone, TFA], the IC50 in test [1] and in test [2] was 1000 to 10000 nM in each case.

On to `CC(=O)C1(c2ccccc2)CCN(c2c(C(=O)N3CCC(S(C)(=O)=O)CC3)cnc3ccc(F)cc23)CC1` [Example 273, 1-(1-(6-fluoro-3-(4-(methylsulfonyl)piperidine-1-carbonyl)quinolin-4-yl)-4-phenylpiperidin-4-yl)ethanone], for which the IC50 in test [1] and in test [2] was < 500 nM each time.

With `CC(=O)C1(c2ccccc2)CCN(c2c(C(=O)N3CCN(C(=O)N(C)C)CC3)cnc3ccc(F)cc23)CC1` [Example 271, 4-(4-(4-acetyl-4-phenylpiperidin-1-yl)-6-fluoroquinoline-3-carbonyl)-N,N-dimethylpiperazine-1-carboxamide], the IC50 in test [1] and in test [2] was < 500 nM in each case.

With `O=C(c1cnc2c(F)cc(F)cc2c1N1CCC2(CC1)OCCO2)N1CCN(C(=O)N2CCCC2)CC1` [Example 160, (6,8-difluoro-4-(1,4-dioxa-8-azaspiro[4.5]decan-8-yl)quinolin-3-yl)(4-(pyrrolidine-1-carbonyl)piperazin-1-yl)methanone], the values for the IC50 in test [1] and in test [2] were < 500 nM and > 10000 nM, respectively.

For `COc1ccc2ncc(C(=O)N3CCC(C(F)(F)F)CC3)c(N3CCC4(CC3)OCCO4)c2c1` [Example 12, (6-methoxy-4-(1,4-dioxa-8-azaspiro[4.5]decan-8-yl)quinolin-3-yl)(4-(trifluoromethyl)piperidin-1-yl)methanone, TFA], the IC50 in test [1] was < 500 nM; in test [2], 1000 to 10000 nM.

As to `CCNC(=O)N1CCN(C(=O)c2cnc3c(F)cc(F)cc3c2N2CCC3(CC2)OCCO3)CC1` [Example 141, 4-(6,8-difluoro-4-(1,4-dioxa-8-azaspiro[4.5]decan-8-yl)quinoline-3-carbonyl)-N-ethylpiperazine-1-carboxamide], the values for the IC50 in test [1] and in test [2] were < 500 nM and 1000 to 10000 nM, respectively.

For the compound `COc1ccc2ncc(C(=O)N3CCN(C(C)=O)CC3)c(N3CCC4(CC3)OCCO4)c2c1` [Example 38, 1-(4-(6-methoxy-4-(1,4-dioxa-8-azaspiro[4.5]decan-8-yl)quinoline-3-carbonyl)piperazin-1-yl)ethanone], the figures for the IC50 in test [1] and in test [2] were < 500 nM and 1000 to 10000 nM, respectively.

On to `CCOC(=O)N1CCN(C(=O)c2cnc3ccccc3c2N2CCC(C)(C#N)CC2)CC1` [Example 100, Ethyl 4-(4-(4-cyano-4-methylpiperidin-1-yl)quinoline-3-carbonyl)piperazine-1-carboxylate], for which the IC50 in test [1] was 500 to 1000 nM; in test [2], > 10000 nM.

`COc1ccc2ncc(C(=O)N3CCC(F)(F)CC3)c(N3CCC4(CC3)OCCO4)c2c1` [Example 32, (4,4-difluoropiperidin-1-yl)(6-methoxy-4-(1,4-dioxa-8-azaspiro[4.5]decan-8-yl)quinolin-3-yl)methanone]: the 50% inhibitory concentration (IC50) in test [1] was 500 to 1000 nM; in test [2] it was > 10000 nM.

Consider `C[C@@H]1CN(C(=O)C2CC2)C[C@H](C)N1C(=O)c1cnc2ccc(F)cc2c1N1CCC(C)(C#N)CC1` [Example 240, 1-(3-((2S*,6R*)-4-(cyclopropanecarbonyl)-2,6-dimethylpiperazine-1-carbonyl)-6-fluoroquinolin-4-yl)-4-methylpiperidine-4-carbonitrile], for which the IC50 in test [1] is 1000 to 10000 nM; in test [2], > 10000 nM.

On to `CNC(=O)C1CCN(C(=O)c2cnc3ccc(F)cc3c2N2CCC(C#N)(c3ccccc3)CC2)CC1` [Cpd. 327, 1-(4-(4-cyano-4-phenylpiperidin-1-yl)-6-fluoroquinoline-3-carbonyl)-N-methylpiperidine-4-carboxamide], for which the IC50 in test [1] and in test [2] was < 500 nM in each case.

Turning to `CC(=O)N1CCN(C(=O)c2cnc3ccc(F)cc3c2N2CCC3(CC2)OCCO3)CC1` [Example 51, 1-(4-(6-fluoro-4-(1,4-dioxa-8-azaspiro[4.5]decan-8-yl)quinoline-3-carbonyl)piperazin-1-yl)ethanone], the IC50 was < 500 nM in test [1] and > 10000 nM in test [2].

In the case of `COc1ccc2ncc(C(=O)N3CCN(c4ccncc4)CC3)c(N3CCC4(CC3)OCCO4)c2c1` [Example 15, (6-methoxy-4-(1,4-dioxa-8-azaspiro[4.5]decan-8-yl)quinolin-3-yl)(4-(pyridin-4-yl)piperazin-1-yl)methanone, TFA], the IC50 in test [1] was 1000 to 10000 nM; in test [2], > 10000 nM.

For `N#CC1(c2ccccc2)CCN(c2c(C(=O)N3CC(O)C3)cnc3ccc(F)cc23)CC1` [Cpd. 326, 1-(6-fluoro-3-(3-hydroxyazetidine-1-carbonyl)quinolin-4-yl)-4-phenylpiperidine-4-carbonitrile], the values for the IC50 in test [1] and in test [2] were < 500 nM and 1000 to 10000 nM, respectively.

Regarding `CC1(C#N)CCN(c2c(C(=O)N3CCN(C(=O)C4CC4)C(C)(C)C3)cnc3ccc(F)cc23)CC1` [Example 231, 1-(3-(4-(cyclopropanecarbonyl)-3,3-dimethylpiperazine-1-carbonyl)-6-fluoroquinolin-4-yl)-4-methylpiperidine-4-carbonitrile], the IC50 in test [1] and in test [2] was > 10000 nM each time.
